Positions of bridges follow the written chain, without caps; N, C: chain ends. Residues, ends and D or L forms follow the SMILES beside them.
Legend:
human BACE1 (rhBACE1) [1] = target: T1, human BACE1 (rhBACE1) (Homo sapiens, UniProt P56817); assay: Caliper BACE1 activity assay (microfluidic capillary electrophoresis); assay type: biochemical; design: containing human BACE1 (extracellular domain); conditions: for IC50: 12 nM rhBACE1, 1 μM FAM-substrate, pH 4.4
Experimental: An MCE assay reactions can be carried out in a standard enzymatic reaction, initiated by the addition of substrate to enzyme and 4× compound, containing human BACE1 (extracellular domain), amyloid precursor protein beta secretase active site peptide (FAM-[…]-CONH2 (SEQ ID NO: 20)), 50 mM NaOAc pH 4.4 and 0.1% CHAPS. After incubation for 60 minutes at ambient temperature, the product and substrate in each reaction is separated using a 12-sipper microfluidic chip analyzed on an LC3000® (both, Caliper Life Sciences). The separation of product and substrate is optimized by choosing voltages and pressure using the manufacturer's optimization software. Substrate conversion is calculated from the electrophoregram using HTS Well Analyzer software (Caliper Life Sciences).
BACE1, BACE2 and Cathepsin D Activity Assay Using Microfluidic Capillary Electrophoresis (MCE).
BACE1, BACE2, and Cathepsin D reactions were carried out in a final volume of 20 μl per well in a 384-well microplate using a Caliper LabChip 3000 (Hopkinton, Mass.). A standard enzymatic reaction, initiated by the addition of 10 μ12× substrate to 5 μl of 4× enzyme and 5 μl of 4× peptide or small molecule inhibitor, contained 12 nM rhBACE1, 1 μM FAM-[…]-amide (SEQ ID NO: 20), 50 mM NaOAc, pH 4.4, 0.1% CHAPS. The same reaction conditions were used for rhBACE2 (5 nM) and Cathepsin D (6 nM) (Cat. No. 219394; EMD Biosciences, San Diego, Calif.). After incubation for 60 min at room temperature, the product and substrate in each reaction were separated using a 12-sipper microfluidic chip. Separation of product and substrate was optimized by choosing voltages and pressure using the Caliper Optimizer software. The separation buffer contained 100 mM HEPES, pH 7.2, 0.015% Brij-35, 0.1% Coating Reagent #3, 10 mM EDTA and 5% DMSO. The separation conditions used a downstream voltage of −500 V, an upstream voltage of −2250 V, and a screening pressure of −1.2 psi. The product and substrate fluorescence was excited at 488 nm and detected at 530 nm. Substrate conversion was calculated from the electrophoregram using the Caliper HTS Well Analyzer software.
Target sequence in this assay (P56817 46-457 limits assumed): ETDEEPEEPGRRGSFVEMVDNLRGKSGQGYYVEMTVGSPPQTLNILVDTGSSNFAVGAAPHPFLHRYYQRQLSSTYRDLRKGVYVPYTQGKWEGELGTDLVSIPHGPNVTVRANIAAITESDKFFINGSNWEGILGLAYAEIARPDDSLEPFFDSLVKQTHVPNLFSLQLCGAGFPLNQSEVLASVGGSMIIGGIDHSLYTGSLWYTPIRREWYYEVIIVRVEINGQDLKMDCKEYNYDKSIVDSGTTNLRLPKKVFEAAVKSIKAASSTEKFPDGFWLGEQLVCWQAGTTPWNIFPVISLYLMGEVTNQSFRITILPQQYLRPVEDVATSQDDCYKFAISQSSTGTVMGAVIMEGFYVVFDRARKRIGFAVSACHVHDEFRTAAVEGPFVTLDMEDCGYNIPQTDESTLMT

human BACE1 (rhBACE1) [2] = target: T1, human BACE1 (rhBACE1); assay: BACE1 fluorescence polarization (FP) competition binding assay with 5-TAMRA-BACE020 probe; conditions: for IC50: competition with 3 nM 5-TAMRA-BACE020, 12 nM rhBACE1, pH 4.4
Experimental: BACE1 Fluorescence Polarization Competition Binding Assay.
BACE1 binding assays were carried out in a final volume of 10 μL per well in black 384-well microplates (Proxiplate-Plus; Perkin Elmer, Waltham, Mass.). A standard binding reaction, initiated by the addition of 5 μL 2× enzyme to 2.5 μL of 4× binding probe and […] of 4× inhibitor, contained 12 nM rhBACE1, 3 nM 5-TAMRA-[…] (SEQ ID NO: 16) (5-TAMRA-BACE020), 50 mM NaOAc, pH 4.4 with 0.1% CHAPS. The reaction was permitted to proceed towards equilibrium for 2 h at ambient temperature prior to fluorescence polarization measurement using Envision (Perkin Elmer). The parallel and perpendicular fluorescent emissions measured in each well at 595 nm (excitation 531 nm polarized light) were used to determine the milli-polarization level (mP) using the following formula: mP=1000*(S-G*P)/(S+G*P) where S=parallel emission, P=perpendicular emission and G=0.65. The mP value in each well was plotted as a function of inhibitor concentration and the 50% inhibition (IC50) values were determined using a nonlinear least squares fit of the data to a four parameter equation using Prism 5.0 software (GraphPad Software, San Diego, Calif.). 5-TAMRA-labeled BACE020 was purchased from American Peptide Company, Inc (Sunnyvale, Calif.) and solubilized in DMSO to 100 mM for storage.
The affinities of BACE1 peptide ligands were measured using the abovementioned competition binding FP assay for determining IC50 values with serially diluted peptides. A Caliper assay was used to measure the inhibition of BACE1 enzymatic activity by peptide ligands. […] Furthermore, the IC50 values measured by the Caliper assay for peptides BACE017-021 and BACE025-028 are consistent with those measured by the HTRF assay.
Target sequence in this assay (P56817 46-501): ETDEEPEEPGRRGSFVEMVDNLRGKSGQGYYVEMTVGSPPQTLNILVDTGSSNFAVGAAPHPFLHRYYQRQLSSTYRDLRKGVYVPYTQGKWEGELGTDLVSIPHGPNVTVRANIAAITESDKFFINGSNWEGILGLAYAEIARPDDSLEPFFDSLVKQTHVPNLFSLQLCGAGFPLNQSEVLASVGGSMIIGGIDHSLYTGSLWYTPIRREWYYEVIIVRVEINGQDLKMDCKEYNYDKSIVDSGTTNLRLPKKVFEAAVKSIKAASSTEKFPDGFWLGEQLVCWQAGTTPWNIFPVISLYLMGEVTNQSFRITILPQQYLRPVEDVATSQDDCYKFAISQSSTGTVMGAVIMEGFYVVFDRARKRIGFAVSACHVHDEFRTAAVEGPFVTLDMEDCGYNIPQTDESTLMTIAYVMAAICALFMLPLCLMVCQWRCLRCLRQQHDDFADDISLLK

IC50 (human BACE1 (rhBACE1) [1])	IC50 (human BACE1 (rhBACE1) [2])	weakening of inhibitory activity relative to BACE020 (human BACE1 (rhBACE1) [1]; Caliper activity assay)	weakening of affinity relative to BACE020 (human BACE1 (rhBACE1) [2]; FP binding assay)	Molecule
	> 10000 nM			CC[C@H](C)[C@@H]1NC(=O)CNC(=O)[C@H](CC(C)C)NC(=O)[C@H](CC(C)C)NC(=O)[C@H](CCCNC(=N)N)NC(=O)[C@@H](NC(=O)[C@H](Cc2ccc(O)cc2)NC(=O)[C@H](CCSC)NC(C)=O)CSSC[C@@H](C(=O)NCC(N)=O)NC(=O)CNC1=O [BACE032] (Ac-MYCRLLGIGCG-NH2; disulfide 3-10)
	> 10000 nM			CC[C@H](C)[C@@H]1NC(=O)CNC(=O)[C@H](CC(C)C)NC(=O)[C@H](CC(C)C)NC(=O)[C@H](CCCNC(=N)N)NC(=O)[C@@H](NC(C)=O)CSSC[C@@H](C(=O)NCC(N)=O)NC(=O)CNC1=O [BACE034] (Ac-CRLLGIGCG-NH2; disulfide 1-8)
13 ± 2 nM				CC[C@H](C)[C@@H]1NC(=O)CNC(=O)[C@H](CC(C)C)NC(=O)[C@H](CC(C)C)NC(=O)[C@H](CCCNC(=N)N)NC(=O)[C@@H](NC(=O)[C@H](Cc2ccc(O)cc2)NC(=O)[C@H](CCSC)NC(=O)[C@H](CO)NC(=O)[C@H](CCC(=O)O)NC(=O)[C@H](C)NC(=O)[C@H](CC(N)=O)NC(C)=O)CSSC[C@@H](C(=O)NCC(N)=O)NC(=O)CNC1=O [BACE043] (Ac-NAESMYCRLLGIGCG-NH2; disulfide 7-14)
7 nM				CC[C@H](C)[C@@H]1NC(=O)CNC(=O)[C@H](CC(C)C)NC(=O)[C@H](CC(C)C)NC(=O)[C@H](CCCNC(=N)N)NC(=O)[C@@H](NC(=O)[C@H](Cc2ccc(O)cc2)NC(=O)[C@H](CCSC)NC(=O)[C@H](CO)NC(=O)[C@H](CCC(=O)O)NC(=O)[C@H](CCC(=O)O)NC(=O)[C@H](CC(N)=O)NC(C)=O)CSSC[C@@H](C(=O)NCC(N)=O)NC(=O)[C@H](C)NC1=O [BACE053] (Ac-NEESMYCRLLGIACG-NH2; disulfide 7-14)
> 10000 nM	> 10000 nM			CC[C@H](C)[C@@H]1NC(=O)CNC(=O)[C@H](CC(C)C)NC(=O)[C@H](CC(C)C)NC(=O)[C@H](C)NC(=O)[C@@H](NC(=O)[C@H](Cc2ccc(O)cc2)NC(=O)[C@H](CCSC)NC(=O)[C@H](CO)NC(=O)[C@H](CCC(=O)O)NC(C)=O)CSSC[C@@H](C(=O)NCC(N)=O)NC(=O)CNC1=O [BACE057] (Ac-ESMYCALLGIGCG-NH2; disulfide 5-12)

The next lines start with the molecule.

Molecule	IC50 (human BACE1 (rhBACE1) [1])	IC50 (human BACE1 (rhBACE1) [2])	weakening of inhibitory activity relative to BACE020 (human BACE1 (rhBACE1) [1]; Caliper activity assay)	weakening of affinity relative to BACE020 (human BACE1 (rhBACE1) [2]; FP binding assay)
CC[C@H](C)[C@@H]1NC(=O)CNC(=O)[C@H](CC(C)C)NC(=O)[C@H](CC(C)C)NC(=O)[C@H](CCCNC(=N)N)NC(=O)[C@@H](NC(=O)[C@H](Cc2ccc(O)cc2)NC(=O)[C@H](CCSC)NC(=O)[C@H](CO)NC(=O)[C@H](CCC(=O)O)NC(=O)[C@H](CCC(=O)O)NC(C)=O)CSSC[C@@H](C(=O)NCC(N)=O)NC(=O)CNC1=O [BACE029] (Ac-EESMYCRLLGIGCG-NH2; disulfide 6-13)	13 ± 8 nM	12 nM		
CC[C@H](C)[C@@H]1NC(=O)CNC(=O)[C@H](CC(C)C)NC(=O)[C@H](CC(C)C)NC(=O)[C@H](CCCNC(=N)N)NC(=O)[C@@H](NC(=O)[C@H](Cc2ccc(O)cc2)NC(=O)[C@H](CCSC)NC(=O)[C@H](CO)NC(C)=O)CSSC[C@@H](C(=O)NCC(N)=O)NC(=O)CNC1=O [BACE031] (Ac-SMYCRLLGIGCG-NH2; disulfide 4-11)			3-4 fold	3-4 fold
CC[C@H](C)[C@@H]1NC(=O)CNC(=O)[C@H](CC(C)C)NC(=O)[C@H](CC(C)C)NC(=O)[C@H](CCCNC(=N)N)NC(=O)[C@@H](NC(=O)[C@H](Cc2ccc(O)cc2)NC(C)=O)CSSC[C@@H](C(=O)NCC(N)=O)NC(=O)CNC1=O [BACE033] (Ac-YCRLLGIGCG-NH2; disulfide 2-9)		> 10000 nM		
CC[C@H](C)[C@@H]1NC(=O)CNC(=O)[C@H](CC(C)C)NC(=O)[C@H](CC(C)C)NC(=O)[C@H](CCCNC(=N)N)NC(=O)[C@@H](NC(=O)[C@H](Cc2ccc(O)cc2)NC(=O)[C@H](CCSC)NC(=O)[C@H](CO)NC(=O)[C@H](CCC(=O)O)NC(=O)[C@H](CCC(=O)O)NC(=O)[C@H](C)NC(C)=O)CSSC[C@@H](C(=O)NCC(N)=O)NC(=O)CNC1=O [BACE042] (Ac-AEESMYCRLLGIGCG-NH2; disulfide 7-14)	12 ± 8 nM			
CC[C@H](C)[C@@H]1NC(=O)CNC(=O)[C@H](CC(C)C)NC(=O)[C@H](CC(C)C)NC(=O)[C@H](C)NC(=O)[C@@H](NC(=O)[C@H](Cc2ccc(O)cc2)NC(=O)[C@H](CCSC)NC(=O)[C@H](CO)NC(=O)[C@H](CCC(=O)O)NC(=O)[C@H](CCC(=O)O)NC(=O)[C@H](CC(N)=O)NC(C)=O)CSSC[C@@H](C(=O)NCC(N)=O)NC(=O)CNC1=O [BACE048] (Ac-NEESMYCALLGIGCG-NH2; disulfide 7-14)	> 10000 nM	> 10000 nM		
CC[C@H](C)[C@@H]1NC(=O)[C@H](C)NC(=O)[C@H](CC(C)C)NC(=O)[C@H](CC(C)C)NC(=O)[C@H](CCCNC(=N)N)NC(=O)[C@@H](NC(=O)[C@H](Cc2ccc(O)cc2)NC(=O)[C@H](CCSC)NC(=O)[C@H](CO)NC(=O)[C@H](CCC(=O)O)NC(=O)[C@H](CCC(=O)O)NC(=O)[C@H](CC(N)=O)NC(C)=O)CSSC[C@@H](C(=O)NCC(N)=O)NC(=O)CNC1=O [BACE051] (Ac-NEESMYCRLLAIGCG-NH2; disulfide 7-14)	18 ± 5 nM			
CC[C@H](C)[C@@H]1NC(=O)CNC(=O)[C@H](CC(C)C)NC(=O)[C@H](CC(C)C)NC(=O)[C@H](CCCNC(=N)N)NC(=O)[C@@H](NC(=O)[C@H](Cc2ccc(O)cc2)NC(=O)[C@H](CCSC)NC(=O)[C@H](CO)NC(=O)[C@H](CCC(=O)O)NC(=O)[C@H](CCC(=O)O)NC(=O)[C@H](CC(N)=O)NC(C)=O)CSSC[C@@H](C(=O)N[C@@H](C)C(N)=O)NC(=O)CNC1=O [BACE054] (Ac-NEESMYCRLLGIGCA-NH2; disulfide 7-14)	7 ± 4 nM	12 ± 3 nM		
CC[C@H](C)[C@@H]1NC(=O)CNC(=O)[C@H](CC(C)C)NC(=O)[C@H](CC(C)C)NC(=O)[C@H](CCCNC(=N)N)NC(=O)[C@@H](NC(=O)[C@H](Cc2ccccc2)NC(=O)[C@H](CCSC)NC(=O)[C@H](CO)NC(=O)[C@H](CCC(=O)O)NC(=O)[C@H](CCC(=O)O)NC(=O)[C@H](CC(N)=O)NC(C)=O)CSSC[C@@H](C(=O)NCC(N)=O)NC(=O)CNC1=O [BACE055] (Ac-NEESMFCRLLGIGCG-NH2; disulfide 7-14)	11 ± 2 nM			
CC[C@H](C)[C@@H]1NC(=O)CNC(=O)[C@H](CC(C)C)NC(=O)[C@H](CC(C)C)NC(=O)[C@H](CCCNC(=N)N)NC(=O)[C@@H](NC(=O)[C@H](Cc2ccc(O)cc2)NC(=O)[C@H](CCSC)NC(=O)[C@H](Cc2c[nH]cn2)NC(=O)[C@H](CCC(=O)O)NC(=O)[C@H](CCC(=O)O)NC(=O)[C@H](CC(N)=O)NC(C)=O)CSSC[C@@H](C(=O)NCC(N)=O)NC(=O)CNC1=O [BACE056] (Ac-NEEHMYCRLLGIGCG-NH2; disulfide 7-14)	3570 ± 3650 nM			
CC[C@H](C)[C@H](NC(=O)[C@H](Cc1ccccc1)NC(=O)[C@H](Cc1ccc(O)cc1)NC(=O)[C@@H]1CCCN1C(=O)[C@H](Cc1ccc(O)cc1)NC(C)=O)C(=O)N1CCC[C@H]1C(=O)N[C@@H](CC(C)C)C(N)=O [BMS4, reference compound]		> 10000 nM		
Ac-KEESIYSRLMGLGSG-NH2 [BACE025]	≥ 10000 nM	≥ 10000 nM		
Ac-PEESLYSRLLALGSG-NH2 [BACE028]	> 10000 nM	> 10000 nM		

— US9624269B2, “Peptide inhibitors of BACE1” (GENENTECH, INC., priority 2011, dated 2017)
